Values after ≈ are worked out from the molar mass of the structure shown. Where two headings read alike, the source gives them in different places.
Legend:
Type in all cases: physicochemical
[1] = pKa measurement by pH metric method; conditions: protonated TPA023B; titrated pH 2 to pH 12, extrapolated to aqueous pKa
Protocol: 10 mg of TPA023B was used for the pKa measurement.
ISA Water (Ionic Strength Adjusted Water, 0.15 M KCl): Accurately weigh 5.591 g KCl into a 500 mL volumetric flask, dissolve the sample with water, add to volume and mix well. Cosolvent of 60% (v/v) DMSO. Dissolve 2.795 g potassium chloride in 100 mL distilled or deionised water and make up to 250 mL with analytical grade DMSO (Ionic strength adjusted DMSO solution).
Cosolvent of 80% (v/v) MeOH: Dissolve 2.795 g potassium chloride in 50 mL distilled or deionized water and make up to 250 mL with analytical grade MeOH (Ionic strength adjusted MeOH solution).
pKa Determination by pH Metric Method (with or without Co-Solvent):
About 1 mg of sample was weighed into a sample vial, about 1.5 mL of ISA water or 1.5 mL of co-solvent (80% MeOH or 60% DMSO) was added into the vial automatically. The sample solution pre-acidified to pH 2.0 with 0.5 M HCl by the instrument automatically, then titrated three times with base to get pKa value from pH 2 to pH 12, and then extrapolated to get aqueous pKa value. Using this method, the pKa of TPA023B was determined to be 2.19.

[2] = HPLC analysis of degradation of TPA023B with acids in acetone (salt screening)
Protocol: Salt screening via reaction crystallization was preliminarily conducted using five acids in four solvents or solvent mixtures. […] For p-toluenesulfonic acid, about 20 mg of TPA023B and about 1.1 molar equivalents of the corresponding acid were stirred in about 0.5 mL of each solvent. For controls, about 20 mg of TPA023B was stirred in about 0.5 mL of the corresponding solvent. The resulting mixture was heated to about 50° C. with continuous stirring for about 4 hrs and slowly cooled to about 20-25° C. overnight.
HPLC analysis was conducted on the acetone samples to determine the extent of degradation that occurred, if any.

[3] = Approximate solubility of TPA023B in organic solvents; conditions: thermodynamic from solid; for solubility at 4 h: 25 °C, RT; for solubility: 50° C.
Protocol: About 25 mg of compound (TPA023B) was added to a 2.0 mL vial containing 0.5 mL of each organic solvent in Table 14, which was then sealed. The mixtures were stirred-mixed at 800 rpm, RT (25° C.) for 4 hours. After that, if the compound was not completely dissolved in the solvent, the mixture was then stirred-mixed at 800 rpm, 50° C. overnight. If the final mixture was clear solution, the solution would be evaporated by vacuum drying oven at 35° C. and the resulted solid would be checked by XRPD. If the final mixture was slurry, the slurry would be centrifuged at 14000 rpm for 5 minutes and then the residues would be dried by vacuum drying oven at 35° C. and checked by XRPD.

[4] = Accelerated stability testing (HPLC assay and purity); conditions: for Assay (%): assay criterion 95%-105%
Protocol: The stability of Phosphate Polymorphic Form and Free Base Polymorphic Form A were evaluated under accelerated conditions.
Appropriately 2 mg of compounds were accurately weighed into a glass vial, then added diluents (ACN/water, 50/50) and sonicated for 2 minutes to dilute the target concentration of 0.2 mg/mL. The solution was equilibrated to room temperature and then the purity of the compounds was determined by HPLC.

[5] = Solubility in aqueous buffers and simulated fluids, 24 h, HPLC; conditions: for solubility at 24 h: 22.5 °C, thermodynamic from solid, ~20-25° C., read-out: Measured Conc. (solubility); for solubility at 24 h / Measured Conc. (solubility): ~24 h; for Measured Conc. (solubility): LOQ: 0.1 μg/mL
Protocol: About 2 mg of test article was added to a 1.5 mL vials which contained ˜1.0 mL of one medium listed in Table 7 and Table 8, which was then sealed. The mixtures were stirred at ˜20-25° C. for ˜24 hours. After that, the mixture was filtered by 0.45 μm filter membrane and then the supernatant was analyzed by HPLC.

[6] = Intrinsic dissolution rate in SGF; conditions: 37° C., 100 rpm, linear scope within 2 to 120 min
Protocol: About 100 mg of Free Base Polymorphic Form A or Phosphate Polymorphic Form A was weighed into the intrinsic dissolution apparatus and the sample compressed for 1 minute with a compression force of ˜4 MPa to form a compacted pellet within the stainless-steel die. All loose powder was removed from the surface of the die. The intrinsic dissolution shaft was connected with the stainless-steel die and tightened so only one surface of the pellet was exposed (surface area=0.496 cm^2). The shaft in the spindle was adjusted to ensure the exposed surface of the compacted tablet was ˜3.8 cm from the bottom of the vessel when lowered. The temperature of chamber water was set at 37° C.±0.5° C., the shaft rotation at 100 rpm and the sampling time points at 2, 5, 10, 15, 30, 45, 60, 120 min. SGF was used as dissolution medium (900 mL). At each time point, solution samples were filtered, and the supernatant was analyzed by HPLC-UV.

[7] = organic solvent or mixture, 1,4-Dioxane
[8] = organic solvent or mixture, THF
[9] = pH 3.0 citrate buffer (100 mM), initial pH 3.05
[10] = pH 4.5 citrate buffer (100 mM), initial pH 4.44
[11] = pH 7.4 PBS (50 mM), initial pH 7.40
[12] = pH 9.0 USP Buffer (50 mM), initial pH 8.94

CC(C)(O)c1cnn2c(-c3ccc(F)c(-c4c(F)cccc4C#N)c3)cnc2n1 [TPA023B, 2′,6-difluoro-5′-[3-(1-hydroxy-1-methylethyl)-imidazo[1,2-b][1,2,4]triazin-7-yl]biphenyl-2-carbonitrile]
pKa [1]: ~2.19
Purity (%) ([2]; control in acetone, 50° C. about 4 hrs): 99.33%
Purity (%) ([2]; with H2SO4 in acetone): 98.33%
Purity (%) ([2]; with H3PO4 in acetone): 98.88%
Purity (%) ([2]; with HCl in acetone): 98.61%
Purity (%) ([2]; with methane sulfonic acid in acetone): 98.71%
Purity (%) ([2]; with p-toluene sulfonic acid in acetone): 98.65%
solubility at 4 h [3, 7]: < 50 mg/mL
solubility at 4 h ([3]; organic solvent or mixture, DMF): > 50 mg/mL
solubility at 4 h ([3]; organic solvent or mixture, DMSO): > 50 mg/mL
solubility at 4 h [3, 8]: < 50 mg/mL
solubility ([3]; aqueous with cosolvent or surfactant or cyclodextrin, Acetone/H2O (1/1, v/v)): < 50 mg/mL
solubility ([3]; aqueous with cosolvent or surfactant or cyclodextrin, EtOH/H2O (1/1, v/v)): < 50 mg/mL
solubility [3, 7]: > 50 mg/mL
solubility ([3]; organic solvent or mixture, Acetone): < 50 mg/mL
solubility ([3]; organic solvent or mixture, Acetonitrile (ACN)): < 50 mg/mL
solubility ([3]; organic solvent or mixture, DCM): < 50 mg/mL
solubility ([3]; organic solvent or mixture, EtOAc): < 50 mg/mL
solubility ([3]; organic solvent or mixture, Ethanol): < 50 mg/mL
solubility ([3]; organic solvent or mixture, Heptane): < 50 mg/mL
solubility ([3]; organic solvent or mixture, Isopropanol): < 50 mg/mL
solubility ([3]; organic solvent or mixture, MEK): < 50 mg/mL
solubility ([3]; organic solvent or mixture, MTBE): < 50 mg/mL
solubility ([3]; organic solvent or mixture, Methanol): < 50 mg/mL
solubility [3, 8]: > 50 mg/mL
solubility ([3]; organic solvent or mixture, Toluene): < 50 mg/mL
solubility ([3]; water, H2O): < 50 mg/mL

CC(C)(O)c1cnn2c(-c3ccc(F)c(-c4c(F)cccc4C#N)c3)cnc2n1 [Free Base Polymorphic Form A, 2′,6-difluoro-5′-[3-(1-hydroxy-1-methylethyl)-imidazo[1,2-b][1,2,4]triazin-7-yl]biphenyl-2-carbonitrile]
Purity (%) ([4]; 40° C./75% RH (open), 1 week): 98.64%
Assay (%) ([4]; 40° C./75% RH (open), 1 week): 102.35%
Purity (%) ([4]; 80° C. (open), 1 week): 98.62%
Assay (%) ([4]; 80° C. (open), 1 week): 101.60%
Purity (%) ([4]; Initial): 98.72%
Assay (%) ([4]; Initial): 105.51%
Purity (%) ([4]; Light, ~50 h): 98.60%
Assay (%) ([4]; Light, ~50 h): 104.28%
solubility at 24 h ([5]; pH 1.8, simulated gastric fluid, SGF, initial pH 1.80): 0.00138 mg/mL (≈ 0.00353 mM)
solubility at 24 h ([5]; simulated gastric fluid, pH 1.2 Hydrochloric Acid Buffer (50 mM), initial pH 1.17): 0.00977 mg/mL (≈ 0.025 mM)
solubility at 24 h ([5]; FaSSIF, initial pH 6.51): 0.00211 mg/mL (≈ 0.00539 mM)
solubility at 24 h ([5]; FeSSIF, initial pH 5.00): 0.00963 mg/mL (≈ 0.0246 mM)
solubility at 24 h ([5]; Purified water, initial pH 7.02, target 2 mg/mL): 0.00014 mg/mL (≈ 0.000358 mM)
pH value of supernatant ([5]; FaSSIF, initial pH 6.51): 6.50
pH value of supernatant ([5]; FeSSIF, initial pH 5.00): 5.02
pH value of supernatant ([5]; Purified water, initial pH 7.02): 8.73
pH value of supernatant ([5]; SGF, initial pH 1.80): 1.86
pH value of supernatant ([5]; pH 1.2 Hydrochloric Acid Buffer (50 mM), initial pH 1.17): 1.12
pH value of supernatant [5, 9]: 3.00
Measured Conc. (solubility) [5, 9]: <LOQ
pH value of supernatant [5, 10]: 4.45
Measured Conc. (solubility) [5, 10]: <LOQ
pH value of supernatant [5, 11]: 7.42
Measured Conc. (solubility) [5, 11]: <LOQ
pH value of supernatant [5, 12]: 8.98
Measured Conc. (solubility) [5, 12]: <LOQ
intrinsic dissolution rate [6]: 5×10^−5 mg cm^2 min-t

Source: patent publication US11542263B2 (NeuroCycle Therapeutics, Inc., priority 2018, dated 2023)
